# From patent US11090304B2 (Amgen Inc., priority 2018, dated 2021)
# Biological target: GDP-bound KRAS protein (aa 1-169), containing both G12C and C118A amino acid substitutions (Homo sapiens, UniProt P01116, C118A/G12C)
# Assay: Coupled nucleotide exchange assay (SOS-mediated, AlphaScreen)
# Format: biochemical
# Conditions: 5 min compound pre-incubation
# Sequence of GDP-bound KRAS protein (aa 1-169), containing both G12C and C118A amino acid substitutions (P01116 1-169 isoform P01116-2 G12C/C118A): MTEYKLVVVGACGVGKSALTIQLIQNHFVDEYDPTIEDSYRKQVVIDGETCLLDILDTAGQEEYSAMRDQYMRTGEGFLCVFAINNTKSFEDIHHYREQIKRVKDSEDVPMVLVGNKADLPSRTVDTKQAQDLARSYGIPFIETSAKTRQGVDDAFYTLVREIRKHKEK
row,Coupled exchange IC50 (5 min),Compound
1,3.07 | nda μM,"C=CC(=O)N1CCN(c2nc(=O)n(Cc3ccc(OC)cc3)c3nc(-c4c(O)cccc4F)c(Cl)cc23)[C@@H](C)C1 [Example 55-32, 6-chloro-7-(2-fluoro-6-hydroxyphenyl)-1-(4-methoxybenzyl)-4-((2S)-2-methyl-4-(2-propenoyl)-1-piperazinyl)pyrido[2,3-d]pyrimidin-2(1H)-one]"
2,45.8 | nda μM,"C=CC(=O)N1CCN(c2nc(=O)n(C)c3nc(-c4ccccc4F)c(Cl)cc23)[C@@H](C)C1 [Example 55-33, 6-chloro-7-(2-fluorophenyl)-1-methyl-4-((2S)-2-methyl-4-(2-propenoyl)-1-piperazinyl)pyrido[2,3-d]pyrimidin-2(1H)-one]"
3,20.8 | nda μM,"C=CC(=O)N1CCN(c2nc(=O)n(C)c3nc(-c4c(O)cccc4F)c(Cl)cc23)[C@@H](C)C1 [Example 55-34, 6-chloro-7-(2-fluoro-6-hydroxyphenyl)-1-methyl-4-((2S)-2-methyl-4-(2-propenoyl)-1-piperazinyl)pyrido[2,3-d]pyrimidin-2(1H)-one]"
4,38.6 | nda μM,"C=CC(=O)N1CCN(c2nc(=O)n(C)c3nc(-c4c(C)ccc5[nH]ncc45)c(Cl)cc23)[C@@H](C)C1 [Example 55-36, 6-chloro-1-methyl-7-(5-methyl-1H-indazol-4-yl)-4-((2S)-2-methyl-4-(2-propenoyl)-1-piperazinyl)pyrido[2,3-d]pyrimidin-2(1H)-one]"
5,0.377 | nda μM,"C=CC(=O)N1CCN(c2nc(=O)n(-c3c(C)cnn3C(C)(C)C)c3nc(-c4ccccc4F)c(Cl)cc23)[C@@H](C)C1 [Example 55-38, 6-chloro-7-(2-fluorophenyl)-1-(4-methyl-1-(2-methyl-2-propanyl)-1H-pyrazol-5-yl)-4-((2S)-2-methyl-4-(2-propenoyl)-1-piperazinyl)pyrido[2.3-d]pyrimidin-2(1H)-one]"
6,0.351 | nda μM,"C=CC(=O)N1CCN(c2nc(=O)n(-c3cn[nH]c3C(C)C)c3nc(-c4ccccc4F)c(Cl)cc23)[C@@H](C)C1 [Example 55-42, 6-chloro-7-(2-fluorophenyl)-4-((2S)-2-methyl-4-(2-propenoyl)-1-piperazinyl)-1-(5-(2-propanyl)-1H-pyrazol-4-yl)pyrido[2,3-d]pyrimidin-2(1H)-one]"
7,3.85 | nda μM,"C=CC(=O)N1CCN(c2nc(=O)n(-c3scnc3C3CC3)c3nc(-c4c(O)cccc4F)c(Cl)cc23)[C@@H](C)C1 [Example 56-3, 6-chloro-1-(4-cyclopropyl-1,3-thiazol-5-yl)-7-(2-fluoro-6-hydroxyphenyl)-4-((2S)-2-methyl-4-(2-propenoyl)-1-piperazinyl)pyrido[2,3-d]pyrimidin-2(1H)-one]"
8,5.32 | nda μM,"C=CC(=O)N1CCN(c2nc(=O)n(-c3scnc3C3CC3)c3nc(-c4ccccc4F)c(Cl)cc23)[C@@H](C)C1 [Example 56-4, 6-chloro-1-(4-cyclopropyl-1,3-thiazol-5-yl)-7-(2-fluorophenyl)-4-((2S)-2-methyl-4-(2-propenoyl)-1-piperazinyl)pyrido[2,3-d]pyrimidin-2(1H)-one]"
9,1.56 | nda μM,"C=CC(=O)N1CCN(c2nc(=O)n(-c3ccccc3C(C)C)c3nc(-c4cccc(OC(F)F)c4)c(Cl)cc23)[C@@H](C)C1 [Example 56-8, 6-chloro-7-(3-(difIuoromethoxy)phenyl)-4-((2S)-2-methyl-4-(2-propenoyl)-1-piperazinyl)-1-(2-(2-propanyl)phenyl)pyrido[2,3-d]pyrimidin-2(1H)-one]"
10,1.67 | nda μM,"C=CC(=O)N1CCN(c2nc(=O)n(-c3ccccc3C(C)C)c3nc(-c4c(O)cccc4F)c(F)cc23)[C@@H](C)C1 [Example 57-6, 6-fluoro-7-(2-fluoro-6-hydroxyphenyl)-4-((2S)-2-methyl-4-(2-propenoyl)-1-piperazinyl)-1-(2-(2-propanyl)phenyl)pyrido[2,3-d]pyrimidin-2(1H)-one]"
11,3.79 | nda μM,"C=CC(=O)N1CCN(c2nc(=O)n(-c3c(C)ccnc3CC)c3nc(-c4ccccc4F)c(F)cc23)[C@@H](C)C1 [Example 57-16, 1-(2-ethyl-4-methyl-3-pyridinyl)-6-fluoro-7-(2-fluorophenyl)-4-((2S)-2-methyl-4-(2-propenoyl)-1-piperazinyl)pyrido[2,3-d]pyrimidin-2(1H)-one]"
12,1.73 | nda μM,"C=CC(=O)N1CCN(c2nc(=O)n(-c3c(C)ccnc3C3CC3)c3nc(-c4ccccc4F)c(F)cc23)[C@@H](C)C1 [Example 57-18, 1-(2-cyclopropyl-4-methyl-3-pyridinyl)-6-fluoro-7-(2-fluorophenyl)-4-((2S)-2-methyl-4-(2-propenoyl)-1-piperazinyl)pyrido[2,3-d]pyrimidin-2(1H)-one]"
13,2.45 | nda μM,"C=CC(=O)N1CCN(c2nc(=O)n(-c3c(C)cccc3C3CC3)c3nc(-c4ccccc4F)c(F)cc23)[C@@H](C)C1 [Example 58-14, 1-(2-cyclopropyl-6-methylphenyl)-6-fluoro-7-(2-fluorophenyl)-4-((2S)-2-methyl-4-(2-propenoyl)-1-piperazinyl)pyrido[2,3-d]pyrimidin-2(1H)-one]"
14,1.68 | nda μM,"C=CC(=O)N1CCN(c2nc(=O)n(-c3ccccc3C(C)(C)C)c3nc(-c4ccccc4F)c(F)cc23)[C@@H](C)C1 [Example 58-17, 6-fluoro-7-(2-fluorophenyl)-1-(2-(2-methyl-2-propanyl)phenyl)-4-((2S)-2-methyl-4-(2-propenoyl)-1-piperazinyl)pyrido[2,3-d]pyrimidin-2(1H)-one]"
15,1.96 | nda μM,"C=CC(=O)N1CCN(c2nc(=O)n(-c3c(C4CC4)ccnc3C)c3nc(-c4ccccc4F)c(F)cc23)[C@@H](C)C1 [Example 58-20, 1-(4-cyclopropyl-2-methyl-3-pyridinyl)-6-fluoro-7-(2-fluorophenyl)-4-((2S)-2-methyl-4-(2-propenoyl)-1-piperazinyl)pyrido[2,3-d]pyrimidin-2(1H)-one]"
16,17.5 | nda μM,"C=CC(=O)N1CCN(c2nc(=O)n(-c3c(C)ccnc3C(C)C)c3nc(Cl)c(F)cc23)[C@@H](C)C1 [Example 58-21, 7-chloro-6-fluoro-1-(4-methyl-2-(2-propanyl)-3-pyridinyl)-4-((2S)-2-methyl-4-(2-propenoyl)-4-piperazinyl)pyrido[2,3-d]pyrimidin-2(1H)-one]"
17,2.71 | nda μM,"C=CC(=O)N1CCN(c2nc(=O)n(-c3c(CC)ncnc3CC)c3nc(-c4ccccc4F)c(F)cc23)[C@@H](C)C1 [Example 58-22, 1-(4,6-diethyl-5-pyrimidinyl)-6-fluoro-7-(2-fluorophenyl)-4-((2S)-2-methyl-4-(2-propenoyl)-1-piperazinyl)pyrido[2,3-d]pyrimidin-2(1H)-one]"
18,2.98 | nda μM,"C=CC(=O)N1CCN(c2nc(=O)n(-c3ccccc3C3(C(F)(F)F)CC3)c3nc(-c4c(O)cccc4F)c(F)cc23)[C@@H](C)C1 [Example 59-1, 6-Fluoro-7-(2-fluoro-6-hydroxyphenyl)-4-((2S)-2-methyl-4-(2-propenoyl)-1-piperazinyl)-1-(2-(1-(trifluoromethyl)cyclopropyl)phenyl)pyrido[2,3-d]pyrimidin-2(1H)-one]"
19,0.501 | nda μM,"C=CC(=O)N1CCN(c2nc(=O)n(-c3c(C4CC4)ncnc3C3CC3)c3nc(-c4ccccc4F)c(F)cc23)[C@@H](C)C1 [Example 59-5, 1-(4,6-dicyclopropyl-5-pyrimidinyl)-6-fluoro-7-(2-fluorophenyl)-4-((2S)-2-methyl-4-(2-propenoyl)-1-piperazinyl)pyrido[2,3-d]pyrimidin-2(1H)-one]"
20,22.2 | nda μM,"C=CC(=O)N1CCN(c2nc(=O)n(-c3ccccc3C)c3nc(Cl)c(Cl)cc23)[C@@H](C)C1 [Example 60-12, 6,7-dichloro-1-(2-methylphenyl)-4-((2S)-2-methyl-4-(2-propenoyl)-1-piperazinyl)pyrido[2,3-d]pyrimidin-2(1H)-one]"
21,46.1 | nda μM,"C=CC(=O)N1CCN(c2nc(=O)n(-c3c(F)cccc3F)c3nc(Cl)c(Cl)cc23)[C@@H](C)C1 [Example 60-16, 6,7-dichloro-1-(2,6-difluorophenyl)-4-((2S)-2-Methyl-4-(2-propenoyl)-1-piperazinyl)pyrido[2,3-d]pyrimidin-2(1H)-one]"
22,5.74 | nda μM,"C=CC(=O)N1CCN(c2nc(=O)n(-c3c(F)cccc3F)c3nc(-c4c(O)cccc4F)c(Cl)cc23)[C@@H](C)C1 [Example 60-17, 6-chloro-1-(2,6-difluorophenyl)-7-(2-fluoro-6-hydroxyphenyl)-4-((2S)-2-methyl-4-(2-propenoyl)-1-piperazinyl)pyrido[2,3-d]pyrimidin-2(1H)-one]"
23,25.5 | nda μM,"C=CC(=O)N1CCN(c2nc(=O)n(CC3CCN(C(=O)OC(C)(C)C)CC3)c3nc(Cl)c(Cl)cc23)[C@@H](C)C1 [Example 60-25, 2-methyl-2-propanyl 4-((6,7-dichloro-4-((2S)-2-methyl-4-(2-propenoyl)-1-piperazinyl)-2-oxopyrido[2,3-d]pyrimidin-1(2H)-yl)methyl)-1-piperidinecarboxylate]"

row,Compound,Coupled exchange IC50 (5 min)
1,"C=CC(=O)N1CCN(c2nc(=O)n(-c3ccccc3C)c3nc(OCCCC)c(Cl)cc23)[C@@H](C)C1 [Example 60-13, 7-butoxy-6-chloro-1-(2-methylphenyl)-4-((2S)-2-methyl-4-(2-propenoyl)-1-piperazinyl)pyrido[2,3-d]pyrimidin-2(1H)-one]",85 | nda μM

# Same assay, conditions: 2 h compound pre-incubation
row,Coupled exchange IC50 (2 h),Compound
1,nda | 7.62 μM,"C=CC(=O)N1CCN(c2nc(=O)n(CC3(C(F)(F)F)CC3)c3nc(Cl)c(Cl)cc23)CC1 [Example 60-2, 6,7-dichloro-4-(4-(2-propenoyl)-1-piperazinyl)-1-((1-(trifluoromethyl)cyclopropyl)methyl)pyrido[2,3-d]pyrimidin-2(1H)-one]"
2,nda | 26.9 μM,C=CC(=O)N1CCN(c2nc(=O)n(Cc3ccccn3)c3nc(-c4c(O)cccc4F)c(Cl)cc23)CC1 [Example 60-7]
